# Test results as given in patent US20250304544A1, “MOLEPHANTIN DERIVATIVES USEFUL IN THE TREATMENT OF CANCER” (Nanyang Technological University, priority 2021, published 2025).
# Where two headings read alike, the source gives them in different places.
# Tests used:
# DLD-1 cells xenograft = assay: DLD-1 subcutaneous tumour xenograft mouse model; format: in vivo; conditions: DLD-1 xenografted mice, 25 mg/kg intraperitoneal once every 2 days, after 21 days
# Description: (§1) Female J:Nu outbred nude mice (5-6 weeks old) were injected subcutaneously at the right flank with 1×10^6 HCT116 or DLD-1 cells in 1:1 Hank's Balanced salt solution/Matrigel. Mice were assigned into treatment groups (4-5 mice per group) when tumour volumes reached 50-100 mm^3. Vehicle control (Ethanol:Kolliphor EL:saline=1:1:8), NYH001 (25 mg/kg), NYH002 (25 mg/kg) or 5-flurouracil (5-FU, 25 mg/kg) was given once every 2 days by intraperitoneal injection for 3 weeks. Bodyweight of the mice was taken every day and tumour size was measured twice a week. Tumour sizes were calculated using the formula, volume=(length×width^2)/2 mm^3. At the end of the 3 weeks treatment period, the mice were sacrificed and tumours excised. All procedures were approved by the NTU Institutional Animal Care and Use Committee (IACUC) and conducted in accordance with the IACUC protocol A20001.
# HCT116 cells xenograft = assay: HCT116 subcutaneous tumour xenograft mouse model; format: in vivo; conditions: HCT116 xenografted mice, 25 mg/kg intraperitoneal once every 2 days, after 21 days
# Description: as §1
# AGS = assay: MTT cytotoxicity assay, AGS; format: cell-based; conditions: Homo sapiens, stomach adenocarcinoma, 48 hours, absolute IC50
# Description: (§2) To test the cytotoxicity effect of the compounds NYH001-NYH005 in various cancer cell types, different cancer cells were treated with the compounds for 48 hours and analyzed using MTT assay. […] Absolute IC50 values of the compounds were calculated (Table 1, FIG. 1A-C).
# PC3 = assay: MTT cytotoxicity assay, PC3; format: cell-based; conditions: Homo sapiens, PC-3, PC3, prostate adenocarcinoma, 48 hours, absolute IC50
# Description: as §2
# HCT116 = assay: MTT cytotoxicity assay, HCT116; format: cell-based; conditions: Homo sapiens, HCT-116, HCT116, colon carcinoma, 48 hours, absolute IC50
# Description: as §2
# [1] = system: human myeloid leukemia cell line K562; conditions: cited from earlier work
# Hs746T = assay: MTT cytotoxicity assay, Hs746T; format: cell-based; conditions: Homo sapiens, stomach carcinoma, 48 hours, absolute IC50
# Description: as §2
# H1299 = assay: MTT cytotoxicity assay, H1299; format: cell-based; conditions: Homo sapiens, NCI-H1299, H1299, lung carcinoma, 48 hours, absolute IC50
# Description: as §2
# [2] = system: human hepatoma cell line (SMMC-7221); conditions: cited from earlier work
# Huh7 = assay: MTT cytotoxicity assay, Huh7; format: cell-based; conditions: Homo sapiens, Huh-7, Huh7, liver carcinoma, 48 hours, absolute IC50
# Description: as §2
# Du145 = assay: MTT cytotoxicity assay, Du145; format: cell-based; conditions: Homo sapiens, DU-145, Du145, prostate carcinoma, 48 hours, absolute IC50
# Description: as §2
# MDA-MB-231 = assay: MTT cytotoxicity assay, MDA-MB-231; format: cell-based; conditions: Homo sapiens, MDA-MB-231, breast adenocarcinoma, 48 hours, absolute IC50
# Description: as §2
# Hep3B = assay: MTT cytotoxicity assay, Hep3B; format: cell-based; conditions: Homo sapiens, liver carcinoma, 48 hours, absolute IC50
# Description: as §2
# A549 = assay: MTT cytotoxicity assay, A549; format: cell-based; conditions: Homo sapiens, A549, lung carcinoma, 48 hours, absolute IC50
# Description: as §2
# DLD-1 = assay: MTT cytotoxicity assay, DLD-1; format: cell-based; conditions: Homo sapiens
# Description: as §2
# Mcf-7 = assay: MTT cytotoxicity assay, Mcf-7; format: cell-based; conditions: Homo sapiens, MCF7, Mcf-7, breast adenocarcinoma, 48 hours, absolute IC50
# Description: as §2
# cancer cells = assay: Colony formation (clonogenic) assay; format: cell-based; conditions: some cell lines, concentration as low as 1 μM
# Description: To further confirm the growth inhibitory effect of compounds on cancer cells, colony formation assays were performed. Cells were treated with various doses of the compounds and allowed to grow for 7-10 days till they form colonies. Colonies were fixed and stained with 0.5% w/v crystal violet, containing methanol. The cell culture plates were rinsed with distilled water before scanning for quantification. Colony counts were quantified using Image J software.
# [3] = system: human KB oral carcinoma cells; conditions: cytotoxic activity / proliferation; cited from earlier work
# [4] = DLD-1, colon adenocarcinoma, 48 hours, MTT, absolute IC50, read-out: IC50
compound,measurement,setting,value
"O=c1[nH]cc(F)c(=O)[nH]1 [5-FU, 5-flurouracil, reference compound]",reduction of average tumor volume compared to vehicle control,DLD-1 cells xenograft,32.3%
same,reduction of average tumor weight compared to vehicle control,DLD-1 cells xenograft,38.7%
same,reduction of average tumor volume compared to vehicle control,HCT116 cells xenograft,10.4%
same,reduction of average tumor weight compared to vehicle control,HCT116 cells xenograft,21.9%
"C=C(C)C(=O)O[C@H]1C/C(C)=C/C(=O)/C=C(/C)[C@@H](O)[C@H]2OC(=O)C(=C)C12 (some centres unmarked) [NYH001, Molephantin]",IC50,AGS,1.54 µM
same,IC50,PC3,2.44 µM
same,IC50,HCT116,2.63 µM
same,IC50,[1]; read-out: IC50,7.9 µM
same,IC50,Hs746T,1.92 µM
same,IC50,H1299,2.97 µM
same,IC50,[2]; read-out: IC50,5.8 µM
same,IC50,Huh7,2.88 µM
same,IC50,Du145,4.18 µM
same,IC50,MDA-MB-231,3.05 µM
same,IC50,Hep3B,3.2 µM
same,IC50,A549,15 µM
same,IC50,DLD-1; [4],1.5 µM
same,reduction of average tumor volume compared to vehicle control,HCT116 cells xenograft,35.4%
same,reduction of average tumor weight compared to vehicle control,HCT116 cells xenograft,41.7%
same,IC50,Mcf-7,4.82 µM
C=C(C)C(=O)O[C@H]1C/C(C)=C/C(=O)/C=C(/C)[C@@H](OC(=O)c2ccccc2)[C@H]2OC(=O)C(=C)C12 (some centres unmarked) [NYH002],IC50,AGS,0.421 µM
same,IC50,PC3,1.28 µM
same,IC50,HCT116,0.869 µM
same,IC50,Hs746T,0.468 µM
same,IC50,H1299,1.35 µM
same,colonies formed,cancer cells,did not result in any colonies formed
same,IC50,Huh7,1.16 µM
same,IC50,Du145,2.36 µM
same,IC50,MDA-MB-231,0.909 µM
same,IC50,Hep3B,0.911 µM
same,reduction of average tumor volume compared to vehicle control,DLD-1 cells xenograft,51.9%
same,reduction of average tumor weight compared to vehicle control,DLD-1 cells xenograft,57.3%
same,IC50,A549,5.08 µM
same,IC50,DLD-1; [4],0.353 µM
same,reduction of average tumor volume compared to vehicle control,HCT116 cells xenograft,46.5%
same,reduction of average tumor weight compared to vehicle control,HCT116 cells xenograft,49.3%
same,IC50,Mcf-7,2 µM
C=C(C)C(=O)O[C@H]1C/C(C)=C/C(=O)/C=C(/C)[C@@H](OC(=O)c2ccc(C(F)(F)F)cc2)[C@H]2OC(=O)C(=C)C12 (some centres unmarked) [NYH004],IC50,AGS,1.02 µM
same,IC50,PC3,1.97 µM
same,IC50,HCT116,1.3 µM
same,IC50,Hs746T,1.19 µM
same,IC50,H1299,1.67 µM
same,IC50,Huh7,1.59 µM
same,IC50,Du145,3 µM
same,IC50,MDA-MB-231,1.14 µM
same,IC50,Hep3B,1.85 µM
same,IC50,A549,5.23 µM
same,IC50,DLD-1; [4],0.933 µM
same,IC50,Mcf-7,2.04 µM
C=C(C)C(=O)O[C@H]1C/C(C)=C/C(=O)/C=C(/C)[C@@H](OC(=O)c2cc(C(F)(F)F)cc(C(F)(F)F)c2)[C@H]2OC(=O)C(=C)C12 (some centres unmarked) [NYH005],IC50,AGS,1.12 µM
same,IC50,PC3,2.48 µM
same,IC50,HCT116,1.59 µM
same,IC50,Hs746T,1.95 µM
same,IC50,H1299,1.55 µM
same,IC50,Huh7,2.09 µM
same,IC50,Du145,3.6 µM
same,IC50,MDA-MB-231,1.47 µM
same,IC50,Hep3B,2 µM
same,IC50,A549,5.86 µM
same,IC50,DLD-1; [4],0.615 µM
same,IC50,Mcf-7,2.38 µM
C=C(C)C(=O)O[C@H]1C/C(C)=C/C(=O)/C=C(/C)[C@@H](OC(=O)c2ccc([N+](=O)[O-])cc2)[C@H]2OC(=O)C(=C)C12 (some centres unmarked) [NYH007],IC50,"DLD-1; DLD-1 cells, read-out: IC50 (cytotoxic effect)",0.35 µM
C=C(C)C(=O)O[C@H]1C/C(C)=C\[C@@]2(OC)C=C(C)[C@@H](O2)[C@H]2OC(=O)[C@@H](COC)[C@@H]21 [Tomenphantopin-C],IC50,[1],inactive
same,IC50,[2],inactive
Tomenphantine-A,ED50,[3],3.0 µg/mL
Tomenphantine-B,ED50,[3],2.7 µg/mL
Tomenphantopin-A,ED50,[3],2.5 µg/mL
Tomenphantopin-B,ED50,[3],5.0 µg/mL
Tomenphantopin-D,IC50,[1]; read-out: IC50,44.8 µM
same,IC50,[2]; read-out: IC50,11.2 µM
Tomenphantopin-E,IC50,[1],inactive
same,IC50,[2],inactive
Tomenphantopin-F,IC50,[1],inactive
same,IC50,[2],inactive
